Results taken from publication PMC8539695, “Promising Natural Compounds against Flavivirus Proteases: Citrus Flavonoids Hesperetin and Hesperidin” (Plants, 2021).

How the values were obtained:
DENV2 NS2B/NS3^pro [1] = molecular target: T1, DENV2 NS2B/NS3^pro (Dengue virus type 2, UniProt P14340); assay: biochemical; type: biochemical
T1 construct: tryptophan residues in the NS2B cofactor domain and in the NS3 protease domain; inferred from Ni-NTA purification and the pET-15b vector; made in house; host or cells: E. coli Lemo (DE3)
T1 sequence (P14340 with tags, fused parts or gaps I1442G/L1443G/I1444G/R1445G/T1446S/DEL1448-1472/K1473G/Q1474G/R1475G): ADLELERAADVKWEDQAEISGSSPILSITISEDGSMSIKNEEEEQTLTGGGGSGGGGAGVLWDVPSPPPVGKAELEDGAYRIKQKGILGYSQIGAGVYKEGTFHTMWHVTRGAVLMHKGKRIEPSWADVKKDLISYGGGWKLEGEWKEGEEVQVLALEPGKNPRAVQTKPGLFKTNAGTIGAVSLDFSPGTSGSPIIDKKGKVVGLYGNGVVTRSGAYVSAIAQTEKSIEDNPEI

YFV NS2B/NS3^pro [2] = molecular target: T2, YFV NS2B/NS3^pro (Yellow fever virus, UniProt Q1X881); assay: biochemical; details: for inhibition at 10 µM: read-out: Inhibition of protease activity, primary inhibition test
WNV NS2B/NS3^pro [3] = molecular target: T3, WNV NS2B/NS3^pro (West Nile virus, UniProt P06935); assay: biochemical; details: for inhibition at 10 µM: read-out: Inhibition of protease activity, primary inhibition test
T3 construct: tryptophan residues in the NS2B cofactor domain and in the NS3 protease domain; inferred from Ni-NTA purification and the pET-15b vector; made in house; host or cells: E. coli Lemo (DE3)

DENV2 NS2B/NS3^pro [4] = molecular target: T1, DENV2 NS2B/NS3^pro; assay: biochemical; type: binding
YFV NS2B/NS3^pro [5] = molecular target: T2, YFV NS2B/NS3^pro; assay: biochemical; type: binding
WNV NS2B/NS3^pro [6] = molecular target: T3, WNV NS2B/NS3^pro; assay: biochemical; type: binding
ZIKV NS2B/NS3^pro [7] = system: ZIKV NS2B/NS3^pro; parameters: method as in PMID 33661906; details: ZIKV NS2B/NS3pro, cited from earlier work
ZIKV NS2B/NS3^pro [8] = molecular target: ZIKV NS2B/NS3^pro; parameters: method as in PMID 33661906; details: ZIKV NS2B/NS3pro, value ± STD; cited from earlier work

T3 sequence (P06935 1502-1679 limits assumed): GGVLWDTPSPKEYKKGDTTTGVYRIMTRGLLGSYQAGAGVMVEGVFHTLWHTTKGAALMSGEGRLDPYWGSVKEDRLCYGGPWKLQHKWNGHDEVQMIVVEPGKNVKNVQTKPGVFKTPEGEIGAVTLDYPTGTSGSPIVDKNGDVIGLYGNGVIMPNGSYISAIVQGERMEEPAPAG
T3 sequence (P06935 1424-1463 partner limits assumed): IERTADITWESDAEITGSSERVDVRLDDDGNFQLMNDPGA
T2 sequence (Q1X881 1485-1665 limits assumed): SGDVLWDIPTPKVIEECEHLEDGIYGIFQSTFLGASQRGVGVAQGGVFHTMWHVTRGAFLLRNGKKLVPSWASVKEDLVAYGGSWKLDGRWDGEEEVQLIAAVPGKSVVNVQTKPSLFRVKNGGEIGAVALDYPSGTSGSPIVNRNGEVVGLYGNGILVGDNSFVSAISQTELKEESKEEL
T2 sequence (Q1X881 1407-1446 partner limits assumed): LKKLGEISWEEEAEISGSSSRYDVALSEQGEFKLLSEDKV

| Compound | Concentration that inhibited 100% of the protease activity (DENV2 NS2B/NS3^pro [1]) [µM] | IC50 (DENV2 NS2B/NS3^pro [1]) [µM] | Inhibition Mode (DENV2 NS2B/NS3^pro [1]) | LE (ligand efficiency) (DENV2 NS2B/NS3^pro [1]) | Concentration that inhibited 100% of the protease activity (YFV NS2B/NS3^pro [2]) [µM] | IC50 (YFV NS2B/NS3^pro [2]) [µM] | Inhibition Mode (YFV NS2B/NS3^pro [2]) | LE (ligand efficiency) (YFV NS2B/NS3^pro [2]) | inhibition at 10 µM (YFV NS2B/NS3^pro [2]) [%] | Concentration that inhibited 100% of the protease activity (WNV NS2B/NS3^pro [3]) [µM] | IC50 (WNV NS2B/NS3^pro [3]) [µM] | Inhibition Mode (WNV NS2B/NS3^pro [3]) | LE (ligand efficiency) (WNV NS2B/NS3^pro [3]) | inhibition at 10 µM (WNV NS2B/NS3^pro [3]) [%] | Kd (DENV2 NS2B/NS3^pro [4]) [µM] | Red edge excitation shift (REES) of the protease maximum fluorescence peak (DENV2 NS2B/NS3^pro [4]) | Kd (YFV NS2B/NS3^pro [5]) [µM] | Red edge excitation shift (REES) of the protease maximum fluorescence peak (YFV NS2B/NS3^pro [5]) | Kd (WNV NS2B/NS3^pro [6]) [µM] | Red edge excitation shift (REES) of the protease maximum fluorescence peak (WNV NS2B/NS3^pro [6]) | further results |
| --- | --- | --- | --- | --- | --- | --- | --- | --- | --- | --- | --- | --- | --- | --- | --- | --- | --- | --- | --- | --- | --- |
| COc1ccc(C2CC(=O)c3c(O)cc(OC4O[C@H](CO[C@@H]5O[C@@H](C)[C@H](O)[C@@H](O)[C@H]5O)[C@@H](O)[C@H](O)[C@H]4O)cc3O2)cc1O (some centres unmarked) [HSD, 3′,5,7-trihydroxy-4′-methoxy-flavanone-7-rhamnoglucoside] | 140 | 55.7 ± 2.5 | noncompetitive | 0.14 | 140 | 67.7 ± 7.5 | noncompetitive | 0.13 | ~30 | 120 | 50.7 ± 8.3 | noncompetitive | 0.14 | ~30 | 20.9 ± 2.4 | no shift | 29.5 ± 2.8 | no shift | 19.5 ± 2.8 | no shift | – |
| COc1ccc(C2CC(=O)c3c(O)cc(O)cc3O2)cc1O (centres unmarked) [HST, 3′,5,7-trihydroxy-4′-methoxyflavanone] | 140 | 4.7 ± 0.8 | noncompetitive | 0.34 | 80 | 2.04 | noncompetitive | 0.36 | ~80 | 80 | 4.27 | noncompetitive | 0.34 | ~70 | 18.7 ± 2.7 | 11 nm | 12.3 ± 2.2 | 22 nm | 13.5 ± 2 | 15 nm | IC50 (ZIKV NS2B/NS3^pro [7]; value ± STD): 12.6 ± 1.3 µM; Inhibition Mode (ZIKV NS2B/NS3^pro [7]): noncompetitive; pIC50 (ZIKV NS2B/NS3^pro [7]): 4.90; Kd (ZIKV NS2B/NS3^pro [8]): 17.8 ± 2.9 µM |
